Measured values from ChEMBL document CHEMBL1275577, “Study of the in vitro activities of rifaximin and comparator agents against 536 anaerobic intestinal bacteria from the perspective of potential utility in pathology involving bowel flora” (Antimicrob Agents Chemother, 2009).
In brackets after ≈: the same amount, converted by molar mass.

Columns and labels:
[1] = tested on: Clostridium perfringens; experiment: Antimicrobial activity against Clostridium perfringens by Wadsworth agar dilution method; assay type: functional
[2] = tested on: Coprobacillus cateniformis; experiment: Antimicrobial activity against Coprobacillus cateniformis by Wadsworth agar dilution method; assay type: functional
[3] = tested on: Ruminococcus flavefaciens; experiment: Antimicrobial activity against Ruminococcus flavefaciens by Wadsworth agar dilution method; assay type: functional
[4] = tested on: Cutibacterium acnes; experiment: Antimicrobial activity against Propionibacterium acnes by Wadsworth agar dilution method; assay type: functional
[5] = tested on: Lactobacillus sp.; experiment: Antimicrobial activity against Lactobacillus sp. by Wadsworth agar dilution method; assay type: functional
[6] = tested on: Clostridium beijerinckii; experiment: Antimicrobial activity against Clostridium beijerinckii by Wadsworth agar dilution method; assay type: functional
[7] = tested on: Clostridioides difficile; experiment: Antimicrobial activity against Clostridium difficile by Wadsworth agar dilution method; assay type: functional
[8] = tested on: Actinomyces viscosus; experiment: Antimicrobial activity against Actinomyces viscosus by Wadsworth agar dilution method; assay type: functional
[9] = tested on: Parabacteroides distasonis; experiment: Antimicrobial activity against Parabacteroides distasonis by Wadsworth agar dilution method; assay type: functional
[10] = tested on: Ruminococcus torques; experiment: Antimicrobial activity against Ruminococcus torques by Wadsworth agar dilution method; assay type: functional; conditions: Mediterraneibacter torques
[11] = tested on: Clostridium nexile; experiment: Antimicrobial activity against Clostridium nexile by Wadsworth agar dilution method; assay type: functional; conditions: Faecalimonas nexilis
[12] = tested on: Clostridium cocleatum; experiment: Antimicrobial activity against Clostridium cocleatum by Wadsworth agar dilution method; assay type: functional; conditions: Thomasclavelia cocleata
[13] = tested on: Lacticaseibacillus rhamnosus; experiment: Antimicrobial activity against Lactobacillus rhamnosus by Wadsworth agar dilution method; assay type: functional
[14] = tested on: Prevotella melaninogenica; experiment: Antimicrobial activity against Prevotella melaninogenica by Wadsworth agar dilution method; assay type: functional
[15] = tested on: Catenibacterium mitsuokai; experiment: Antimicrobial activity against Catenibacterium mitsuokai by Wadsworth agar dilution method; assay type: functional
[16] = tested on: Eubacterium callanderi; experiment: Antimicrobial activity against Eubacterium callanderi by Wadsworth agar dilution method; assay type: functional
[17] = tested on: Schaalia meyeri; experiment: Antimicrobial activity against Actinomyces meyeri by Wadsworth agar dilution method; assay type: functional
[18] = tested on: Desulfovibrio piger; experiment: Antimicrobial activity against Desulfovibrio piger by Wadsworth agar dilution method; assay type: functional
[19] = tested on: Limosilactobacillus fermentum; experiment: Antimicrobial activity against Lactobacillus fermentum by Wadsworth agar dilution method; assay type: functional
[20] = tested on: Ruminococcus obeum; experiment: Antimicrobial activity against Ruminococcus obeum by Wadsworth agar dilution method; assay type: functional; conditions: Blautia obeum
[21] = tested on: Schaalia odontolytica; experiment: Antimicrobial activity against Actinomyces odontolyticus by Wadsworth agar dilution method; assay type: functional
[22] = tested on: Clostridium lactatifermentans; experiment: Antimicrobial activity against Clostridium lactatifermentans by Wadsworth agar dilution method; assay type: functional; conditions: Anaerotignum lactatifermentans
[23] = tested on: Prevotella disiens; experiment: Antimicrobial activity against Prevotella disiens by Wadsworth agar dilution method; assay type: functional
[24] = tested on: Eubacterium biforme; experiment: Antimicrobial activity against Eubacterium biforme by Wadsworth agar dilution method; assay type: functional; conditions: Holdemanella biformis
[25] = tested on: Bacteroides stercoris; experiment: Antimicrobial activity against Bacteroides stercoris by Wadsworth agar dilution method; assay type: functional
[26] = tested on: Thomasclavelia ramosa; experiment: Antimicrobial activity against Clostridium ramosum by Wadsworth agar dilution method; assay type: functional
[27] = tested on: Eggerthella lenta; experiment: Antimicrobial activity against Eggerthella lenta by Wadsworth agar dilution method; assay type: functional
[28] = tested on: Anaerococcus tetradius; experiment: Antimicrobial activity against Anaerococcus tetradius by Wadsworth agar dilution method; assay type: functional
[29] = tested on: Clostridium tertium; experiment: Antimicrobial activity against Clostridium tertium by Wadsworth agar dilution method; assay type: functional
[30] = tested on: Lactobacillus acidophilus; experiment: Antimicrobial activity against Lactobacillus acidophilus by Wadsworth agar dilution method; assay type: functional
[31] = tested on: Anaerococcus prevotii; experiment: Antimicrobial activity against Anaerococcus prevotii by Wadsworth agar dilution method; assay type: functional
[32] = tested on: Parvimonas micra; experiment: Antimicrobial activity against Peptostreptococcus micros by Wadsworth agar dilution method; assay type: functional
[33] = tested on: Flavonifractor plautii; experiment: Antimicrobial activity against Clostridium orbiscindens by Wadsworth agar dilution method; assay type: functional
[34] = tested on: Limosilactobacillus reuteri; experiment: Antimicrobial activity against Lactobacillus reuteri by Wadsworth agar dilution method; assay type: functional
[35] = tested on: Ruminococcus lactaris; experiment: Antimicrobial activity against Ruminococcus lactaris by Wadsworth agar dilution method; assay type: functional
[36] = tested on: Clostridium symbiosum; experiment: Antimicrobial activity against Clostridium symbiosum by Wadsworth agar dilution method; assay type: functional
[37] = tested on: Eubacterium rectale; experiment: Antimicrobial activity against Eubacterium rectale by Wadsworth agar dilution method; assay type: functional; conditions: Agathobacter rectalis
[38] = tested on: Peptoniphilus harei; experiment: Antimicrobial activity against Peptoniphilus harei by Wadsworth agar dilution method; assay type: functional
[39] = tested on: Propionibacterium propionicum; experiment: Antimicrobial activity against Propionibacterium propionicum by Wadsworth agar dilution method; assay type: functional; conditions: Arachnia propionica
[40] = tested on: Bifidobacterium pseudolongum; experiment: Antimicrobial activity against Bifidobacterium pseudolongum by Wadsworth agar dilution method; assay type: functional
[41] = tested on: Clostridium leptum; experiment: Antimicrobial activity against Clostridium leptum by Wadsworth agar dilution method; assay type: functional
[42] = tested on: Hoylesella loescheii; experiment: Antimicrobial activity against Prevotella loescheii by Wadsworth agar dilution method; assay type: functional
[43] = tested on: Paeniclostridium sordellii; experiment: Antimicrobial activity against Clostridium sordellii by Wadsworth agar dilution method; assay type: functional; conditions: Paraclostridium sordellii
[44] = Antimicrobial activity against Bifidobacterium infantis by Wadsworth agar dilution method; assay type: functional, Bifidobacterium longum subsp. infantis; conditions: Bifidobacterium longum
[45] = tested on: [Clostridium] innocuum; experiment: Antimicrobial activity against Clostridium innocuum by Wadsworth agar dilution method; assay type: functional
[46] = tested on: Fusobacterium mortiferum; experiment: Antimicrobial activity against Fusobacterium mortiferum by Wadsworth agar dilution method in presence of beta-lactamase inhibitor Sulbactam; assay type: functional
[47] = tested on: Bilophila wadsworthia; experiment: Antimicrobial activity against Bilophila wadsworthia by Wadsworth agar dilution method in presence of 1% pyruvic acid; assay type: functional

With CN[C@H](CC(C)C)C(=O)N[C@H]1C(=O)N[C@@H](CC(N)=O)C(=O)N[C@H]2C(=O)N[C@H]3C(=O)N[C@H](C(=O)N[C@H](C(=O)O)c4cc(O)cc(O)c4-c4cc3ccc4O)[C@H](O)c3ccc(c(Cl)c3)Oc3cc2cc(c3O[C@@H]2O[C@H](CO)[C@@H](O)[C@H](O)[C@H]2O[C@H]2C[C@](C)(N)[C@H](O)[C@H](C)O2)Oc2ccc(cc2Cl)[C@H]1O [VANCOMYCIN] the MIC50 [1] was 1 µg/mL (≈ 0.69 µM), the MIC90 [1] was 1 µg/mL (≈ 0.69 µM) and the MIC50 [2] was 1 µg/mL (≈ 0.69 µM). For the same compound, the MIC90 [2] was 64 µg/mL (≈ 44.2 µM), the MIC50 [3] was 0.5 µg/mL (≈ 0.345 µM) and the MIC90 [3] was 1 µg/mL (≈ 0.69 µM). It also gave an MIC50 [4] of 1 µg/mL (≈ 0.69 µM), an MIC90 [4] of 64 µg/mL (≈ 44.2 µM) and an MIC50 [5] of 1 µg/mL (≈ 0.69 µM). It also gave an MIC90 [5] of 64 µg/mL (≈ 44.2 µM), an MIC50 [6] of 1 µg/mL (≈ 0.69 µM) and an MIC90 [6] of 4 µg/mL (≈ 2.76 µM). The MIC [7] was 1 µg/mL (≈ 0.69 µM), the MIC50 [7] was 1 µg/mL (≈ 0.69 µM) and the MIC90 [7] was 2 µg/mL (≈ 1.38 µM). The MIC50 [8] was 1 µg/mL (≈ 0.69 µM), the MIC90 [8] was 64 µg/mL (≈ 44.2 µM) and the MIC50 [9] was 128 µg/mL (≈ 88.3 µM). For the same compound, the MIC90 [9] was 128 µg/mL (≈ 88.3 µM), the MIC50 [10] was 0.5 µg/mL (≈ 0.345 µM) and the MIC90 [10] was 1 µg/mL (≈ 0.69 µM). The MIC50 [11] was 1 µg/mL (≈ 0.69 µM), the MIC90 [11] was 4 µg/mL (≈ 2.76 µM) and the MIC50 [12] was 1 µg/mL (≈ 0.69 µM). For the same compound, the MIC90 [12] was 4 µg/mL (≈ 2.76 µM), the MIC50 [13] was 1 µg/mL (≈ 0.69 µM) and the MIC90 [13] was 64 µg/mL (≈ 44.2 µM). The MIC50 [14] was 128 µg/mL (≈ 88.3 µM), the MIC90 [14] was 256 µg/mL (≈ 177 µM) and the MIC50 [15] was 1 µg/mL (≈ 0.69 µM). The MIC90 [15] was 64 µg/mL (≈ 44.2 µM), the MIC50 [16] was 1 µg/mL (≈ 0.69 µM) and the MIC90 [16] was 64 µg/mL (≈ 44.2 µM). The MIC50 [17] was 1 µg/mL (≈ 0.69 µM), the MIC90 [17] was 64 µg/mL (≈ 44.2 µM) and the MIC50 [18] was > 1020 µg/mL. For the same compound, the MIC90 [18] was > 1020 µg/mL, the MIC50 [19] was 1 µg/mL (≈ 0.69 µM) and the MIC90 [19] was 64 µg/mL (≈ 44.2 µM). The MIC50 [20] was 0.5 µg/mL (≈ 0.345 µM), the MIC90 [20] was 1 µg/mL (≈ 0.69 µM) and the MIC50 [21] was 1 µg/mL (≈ 0.69 µM). It also gave an MIC90 [21] of 64 µg/mL (≈ 44.2 µM), an MIC50 [22] of 1 µg/mL (≈ 0.69 µM) and an MIC90 [22] of 4 µg/mL (≈ 2.76 µM). The MIC50 [23] was 128 µg/mL (≈ 88.3 µM), the MIC90 [23] was 256 µg/mL (≈ 177 µM) and the MIC50 [24] was 1 µg/mL (≈ 0.69 µM). For the same compound, the MIC90 [24] was 64 µg/mL (≈ 44.2 µM), the MIC [25] was 64 µg/mL (≈ 44.2 µM) and the MIC50 [25] was 64 µg/mL (≈ 44.2 µM). It also gave an MIC90 [25] of 128 µg/mL (≈ 88.3 µM), an MIC50 [26] of 1 µg/mL (≈ 0.69 µM) and an MIC90 [26] of 4 µg/mL (≈ 2.76 µM). It also gave an MIC50 [27] of 1 µg/mL (≈ 0.69 µM), an MIC90 [27] of 64 µg/mL (≈ 44.2 µM) and an MIC50 [28] of 0.5 µg/mL (≈ 0.345 µM). The MIC90 [28] was 1 µg/mL (≈ 0.69 µM), the MIC50 [29] was 1 µg/mL (≈ 0.69 µM) and the MIC90 [29] was 4 µg/mL (≈ 2.76 µM). For the same compound, the MIC50 [30] was 1 µg/mL (≈ 0.69 µM), the MIC90 [30] was 64 µg/mL (≈ 44.2 µM) and the MIC50 [31] was 0.5 µg/mL (≈ 0.345 µM). For the same compound, the MIC90 [31] was 1 µg/mL (≈ 0.69 µM), the MIC50 [32] was 0.5 µg/mL (≈ 0.345 µM) and the MIC90 [32] was 1 µg/mL (≈ 0.69 µM). For the same compound, the MIC50 [33] was 8 µg/mL (≈ 5.52 µM), the MIC90 [33] was 8 µg/mL (≈ 5.52 µM) and the MIC50 [34] was 1 µg/mL (≈ 0.69 µM). For the same compound, the MIC90 [34] was 64 µg/mL (≈ 44.2 µM), the MIC50 [35] was 0.5 µg/mL (≈ 0.345 µM) and the MIC90 [35] was 1 µg/mL (≈ 0.69 µM). For the same compound, the MIC50 [36] was 1 µg/mL (≈ 0.69 µM), the MIC90 [36] was 4 µg/mL (≈ 2.76 µM) and the MIC50 [37] was 1 µg/mL (≈ 0.69 µM). For the same compound, the MIC90 [37] was 64 µg/mL (≈ 44.2 µM), the MIC50 [38] was 0.5 µg/mL (≈ 0.345 µM) and the MIC90 [38] was 1 µg/mL (≈ 0.69 µM). The MIC50 [39] was 1 µg/mL (≈ 0.69 µM), the MIC90 [39] was 64 µg/mL (≈ 44.2 µM) and the MIC50 [40] was 1 µg/mL (≈ 0.69 µM). For the same compound, the MIC90 [40] was 64 µg/mL (≈ 44.2 µM), the MIC50 [41] was 1 µg/mL (≈ 0.69 µM) and the MIC90 [41] was 4 µg/mL (≈ 2.76 µM). For the same compound, the MIC50 [42] was 128 µg/mL (≈ 88.3 µM), the MIC90 [42] was 256 µg/mL (≈ 177 µM) and the MIC50 [43] was 1 µg/mL (≈ 0.69 µM). The MIC90 [43] was 4 µg/mL (≈ 2.76 µM), the MIC50 [44] was 1 µg/mL (≈ 0.69 µM) and the MIC90 [44] was 64 µg/mL (≈ 44.2 µM). It also gave an MIC [45] of 16 µg/mL (≈ 11 µM), an MIC50 [45] of 16 µg/mL (≈ 11 µM) and an MIC90 [45] of 256 µg/mL (≈ 177 µM). For the same compound, the MIC50 [46] was 256 µg/mL, the MIC90 [46] was > 1020 µg/mL and the MIC [47] was 64 µg/mL. The MIC50 [47] was 64 µg/mL and the MIC90 [47] was 128 µg/mL.
